Measured values taken from patent US10195156B2, “Compounds and compositions for intracellular delivery of agents” (ModernaTX, Inc., priority 2015, dated 2019).

Key:
[1] = Particle size and polydispersity index of nanoparticle compositions (Zetasizer Nano ZS); type: physicochemical
In short: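 Zetasizer Nano ZS; samples in 1×PBS; read-out: particle size plus polydispersity index.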

[2] = Encapsulation efficiency of RNA (QUANT-IT RIBOGREEN RNA assay); type: physicochemical
In short: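 RiboGreen fluorescence (ex ~480, em ~520 nm) measured after 15 min at 37 °C on samples at ~5 μg/mL in TE, pH 7.5, ± 2% Triton X-100 solution. After blank subtraction, free RNA is given as intact-sample signal divided by disrupted-sample signal.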

Luc expression = Luc expression in CD-1 mice (AUC relative to MC3); type: in vivo; conditions: Table 7c
Method: FIG. 15 is a graph summarizing luciferase expression levels at 6 h after administration of nanoparticle compositions containing compounds of the disclosure to CD-1 mice at a dose of 0.5 mpk. Total light flux values were acquired via body luminescent imaging (BLI) 6 h after administration. In this Figure, the numbers 1-7 and 10 refer to the compositions containing Compounds 4-10 and MC3 respectively.
(§1) In contrast, hEPO expression in rats induced by administration of a nanoparticle composition including a compound according to one of formulae (I), (Ia1)-(Ia6), (Ib), (II), (IIa), (III), and (IIIa) was substantially […] than that measured for MC3. […] Table 7c and 7d show additional protein expressions and clearance data from compositions with various compounds disclosed herein as compared to with MC3.

[3] = Lipid clearance: % dose remaining in mouse liver 6 h and 24 h after administration of nanoparticle compositions; type: in vivo, CD-1 mice; conditions: Table 7c
Source text: as §1

[4] = pKa of nanoparticle compositions; type: physicochemical; conditions: Table 20-1
[5] = tested on: luciferase (Luc) mRNA expression; assay: Expression of Luc induced by sample formulations, whole-body bioluminescence after intravenous administration; type: in vivo; conditions: mice, i.v., 0.5 mg/kg; for Total Flux 3 hours / Total Flux 6 hours / Total Flux 24 hours: Table 20-2
In short: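 Read-out is whole-body bioluminescence at 3, 6 and 24 h after a single intravenous dose of 0.5 mg/kg Luc mRNA in nanoparticle formulations. Groups of n=6 mice; PBS and standard MC3 formulation as references.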

[6] = tested on: modified luciferase expression; assay: Expression of Luc in different organs (liver, lung, spleen, femur) 6 hours after intravenous administration; type: in vivo; conditions: Table 20-3, mice, i.v., 0.5 mpk
Method: The efficacy of the nanoparticle compositions presented in Tables 1, 1a, 17-1, 19-1, 20-1 and 21-1 was further evaluated by measuring the expression of modified luciferase in the liver, lung, spleen, and femur upon administration of a given composition. Formulations were administered intravenously to mice (n=3) at a dosage of 0.5 mpk and bioluminescence measured after 6 hours. The standard MC3 formulation and a PBS control were also tested.

IL-6 = assay: Cytokine production induced by sample formulations: IL-6; type: in vivo; conditions: mice, i.v., 0.5 mpk, 6 hours; for IL-6: Table 20-4, formula (20-I), in pg/mL (unit assumed)
In short: (§2)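 Cytokine levels were quantified at 6 hours in mice given the nanoparticle compositions i.v. at 0.5 mpk. MC3 standard formulation and PBS served as comparators.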

IP-10 = assay: Cytokine production induced by sample formulations: IP-10; type: in vivo; conditions: mice, i.v., 0.5 mpk, 6 hours; for IP-10: Table 20-4, formula (20-I), in pg/mL (unit assumed)
In short: as §2

[7] = tested on: modified luciferase (Luc) expression; assay: Expression upon intramuscular administration of Luc mRNA and H10 mRNA formulations; type: in vivo; conditions: 6 hours after intramuscular administration
Method: Sample formulations including both modified luciferase (Luc) mRNA and H10 mRNA were prepared and administered intramuscularly at day 1 and day 21 and the resulting expression and immunogenicity were evaluated simultaneously. Formulations including compounds according to formula (20-I) were prepared and administered at doses of 0.001 and 0.01 mpk (e.g., doses of 0.0005 mpk of a formulation including Luc mRNA and a formulation including H10 mRNA or doses of 0.005 mpk of a formulation including Luc mRNA and a formulation including H10 mRNA). As shown in Table 20-4, the total flux was higher upon administration of the second dose for each composition and at each dose level. Total flux was higher for the higher dose level.

hEPO mRNA expression = assay: Expression of hEPO in CD-1 mice; type: in vivo; conditions: Table 7e; hEPO expression, CD-1 mice, 0.5 mpk
Source text: FIG. 12 is a set of graphs illustrating hEPO expression levels in CD-1 mice dosed with compounds of the disclosure, compared to MC3. PBS is used as control. […] In graphs A-C numbers 1-14 refer to compositions containing the following: 1: Compound 73, 2: Compound 80, 3: Compound 70; 4: Compound 81; 5: Compound 69; 6: Compound 82; 7: Compound 83; 8: Compound 62; 9: Compound 84; 10: Compound 85; 11: Compound 86; 12: Compound 87; 13: MC3; 14: PBS.
FIG. 13 is a graph showing hEPO levels (pg/mL) in CD-1 mice up to ˜25 h after administration of a nanoparticle composition containing compounds of the disclosure, compared to a composition containing MC3. Numbers 1-13 refer to compositions containing the following: 1: Compound 73, 2: Compound 80, 3: Compound 70; 4: Compound 81; 5: Compound 69; 6: Compound 82; 7: Compound 83; 8: Compound 62; 9: Compound 84; 10: Compound 85; 11: Compound 86; 12: Compound 87; 13: MC3. […]

[8] = Table 20-1, rows without footnote mark
[9] = Table 20-1, * formulated with DOPE

CCCCCCCCCN(CCCCCCCCC)CCN(CCCCCCCCC)CC(=O)N1CCN(C(=O)CN(CCCCCCCCC)CCCCCCC(=O)OCC)CC1 [Compound 53, Ethyl 7-((2-(4-(N-(2-(dinonylamino)ethyl)-N-nonylglycyl)piperazin-1-yl)-2-oxoethyl)(nonyl)amino)heptanoate]
PDI ([1]; Table 1b): 0.23
Size (nm) ([1]; Table 1b): 103.0 nm
EE (%) ([2]; Table 1b): 82.8%
AUC (p/s*h) (Luc expression): 9.22E+09 p/s*h
% Dose Remaining 6 hr ([3]; 6 hr): 1.35%
% Dose Remaining 24 hr ([3]; 24 hr): 0.77%

CCCCCCCCCN(CCCCCCCCC)CCN(CCO)CCCCCC(=O)OCCCCC [Compound 20-6, Pentyl 6-((2-(dinonylamino)ethyl)(2-hydroxyethyl)amino)hexanoate]
PDI [1, 8]: 0.220
Size (nm) [1, 8]: 82.5 nm
EE (%) [2, 8]: 94.7%
pKa ([4]; rows without footnote mark): 6.73
Total Flux 3 hours ([5]; 3 hours): 3.39E+10
Total Flux 6 hours [5]: 5.44E+06
Total Flux 24 hours [5]: 5.48E+05
total flux after 3 hours, rank within the named table (in words) ([5]; 3 hours): highest after 3 hours
total flux after 24 hours, rank within the named table (in words) [5]: lowest
Total Flux Liver [6]: 7.75E+05
Total Flux Lung [6]: 2.32E+04
Total Flux Spleen [6]: 2.35E+05
IL-6 (IL-6): 0
IL-6 induction, rank within the named table (in words) (IL-6): lowest
IP-10 (IP-10): 25.3
IP-10 induction, rank or comparison with IL-6 (in words) (IP-10): lowest
Total flux (p/s) 0.001 mpk Dose 1 [7]: 8.57E+05 p/s
Total flux (p/s) 0.001 mpk Dose 2 [7]: 9.79E+05 p/s
Total flux (p/s) 0.01 mpk Dose 1 [7]: 3.41E+06 p/s
Total flux (p/s) 0.01 mpk Dose 2 [7]: 6.04E+06 p/s

CCCCCCCCCN(CCCC(=O)OCCCCC)CCC1CCCN(C(=O)CN(CCCCCCCCC)CCN(CCCCCCCCC)CCCCCCCCC)C1 (centres unmarked) [Compound 80, Pentyl 4-((2-(1-(N-(2-(dinonylamino)ethyl)-N-nonylglycyl)piperidin-3-yl)ethyl)(nonyl)amino)butanoate]
PDI ([1]; Table 1b): 0.2
Size (nm) ([1]; Table 1b): 65.8 nm
EE (%) ([2]; Table 1b): 98.93%
AUC (p/s*h) CD-1 mice 0.5 mpk (hEPO mRNA expression): 6.24E+7 p/s*h

CCCCCCCCCN(CCCCCCCCC)CCCC1CCN(C(=O)CCN(CCCCCCCCC)CCN(CCCCCCCCC)CCCCCCCCC)CC1 [Compound 85, 3-((2-(Dinonylamino)ethyl)(nonyl)amino)-1-(4-(3-(dinonylamino)propyl)piperidin-1-yl)propan-1-one]
PDI ([1]; Table 1b): 0.24
Size (nm) ([1]; Table 1b): 69.9 nm
EE (%) ([2]; Table 1b): 99.18%
AUC (p/s*h) CD-1 mice 0.5 mpk (hEPO mRNA expression): 1.27E+8 p/s*h

CCCCCCCCCCCCN(CCO)CCN(CCCCCC(=O)OCCCCC)CCCCCC(=O)OCCCCC [Compound 20-4, Dipentyl 6,6′-((2-(dodecyl(2-hydroxyethyl)amino)ethyl)azanediyl)dihexanoate]
PDI [1, 8]: 0.160
Size (nm) [1, 8]: 82.1 nm
EE (%) [2, 8]: 91.3%
pKa ([4]; rows without footnote mark): 6.86
Total Flux 3 hours ([5]; 3 hours): 3.01E+06
Total Flux 6 hours [5]: 1.75E+06
Total Flux 24 hours [5]: 6.82E+08
Total Flux Femur ([6]; femur): 2.09E+04
Total Flux Liver [6]: 2.93E+05
Total Flux Lung [6]: 1.11E+04
Total Flux Spleen [6]: 4.51E+04
IL-6 (IL-6): 169.3
IP-10 (IP-10): 270.5
Total flux (p/s) 0.001 mpk Dose 1 [7]: 1.04E+06 p/s
Total flux (p/s) 0.01 mpk Dose 1 [7]: 9.46E+06 p/s

CCCCCCCCCN(CCCCCCCCC)CCC1CCN(C(=O)CN(CCCCCCCCC)CCN(CCCCCCCCC)CCCCCCCCC)C1 (centres unmarked) [Compound 69, 2-((2-(Dinonylamino)ethyl)(nonyl)amino)-1-(3-(2-(dinonylamino)ethyl)pyrrolidin-1-yl)ethan-1-one]
PDI ([1]; Table 1b): 0.24
Size (nm) ([1]; Table 1b): 74.4 nm
EE (%) ([2]; Table 1b): 99.31%
AUC (p/s*h) CD-1 mice 0.5 mpk (hEPO mRNA expression): 2.33E+8 p/s*h

CCCCCCCCCN(CCCC(=O)OCCCCC)CCC1CCN(C(=O)CN(CCCCCCCCC)CCN(CCCCCCCCC)CCCCCCCCC)CC1 [Compound 83, Pentyl 4-((2-(1-(N-(2-(dinonylamino)ethyl)-N-nonylglycyl)piperidin-4-yl)ethyl)(nonyl)amino)butanoate]
PDI ([1]; Table 1b): 0.22
Size (nm) ([1]; Table 1b): 73.2 nm
EE (%) ([2]; Table 1b): 99.12%
AUC (p/s*h) CD-1 mice 0.5 mpk (hEPO mRNA expression): 5.21E+7 p/s*h

CCCCCCCCCCCCN(CCCCCCCCCCCC)CCN(CCCCCCCCCCCC)CC(=O)O [Compound 20-1, N-(2-(Didodecylamino)ethyl)-N-dodecylglycine]
PDI [1, 9]: 0.078
Size (nm) [1, 9]: 87.8 nm
EE (%) [2, 9]: 90.7%
pKa ([4]; * formulated with DOPE): 4.48
Total Flux 3 hours ([5]; 3 hours): 1.44E+06
Total Flux 6 hours [5]: 8.30E+05
Total Flux 24 hours [5]: 4.53E+05
total flux after 24 hours, rank within the named table (in words) [5]: lowest
Total Flux Liver [6]: 3.19E+05
Total Flux Lung [6]: 3.79E+04
Total Flux Spleen [6]: 1.70E+05
IL-6 (IL-6): 62.4
IP-10 (IP-10): 2065.8
Total flux (p/s) 0.001 mpk Dose 1 [7]: 3.50E+05 p/s
Total flux (p/s) 0.001 mpk Dose 2 [7]: 1.99E+06 p/s
Total flux (p/s) 0.01 mpk Dose 1 [7]: 3.16E+06 p/s
Total flux (p/s) 0.01 mpk Dose 2 [7]: 1.04E+07 p/s

CCCCCCCCCN(CCCCCCCCC)CCC1CCCN(C(=O)CN(CCCCCCCCC)CCN(CCCCCCCCC)CCCCCCCCC)C1 (centres unmarked) [Compound 73, 2-((2-(Dinonylamino)ethyl)(nonyl)amino)-1-(3-(2-(dinonylamino)ethyl)piperidin-1-yl)ethan-1-one]
PDI ([1]; Table 1b): 0.25
Size (nm) ([1]; Table 1b): 84.3 nm
EE (%) ([2]; Table 1b): 98.85%
AUC (p/s*h) CD-1 mice 0.5 mpk (hEPO mRNA expression): 1.41E+8 p/s*h

CCCCCCCCCN(CCCC(=O)OCCCCC)CCCC1CCN(C(=O)CCN(CCCCCCCCC)CCN(CCCCCCCCC)CCCCCCCCC)CC1 [Compound 84, Pentyl 4-((3-(1-(3-((2-(dinonylamino)ethyl)(nonyl)amino)propanoyl)piperidin-4-yl)propyl)(nonyl)amino)butanoate]
PDI ([1]; Table 1b): 0.19
Size (nm) ([1]; Table 1b): 68.6 nm
EE (%) ([2]; Table 1b): 98.48%
AUC (p/s*h) CD-1 mice 0.5 mpk (hEPO mRNA expression): 5.10E+7 p/s*h

CCCCCCCCCN(CCCCCCCCC)CCN(CCCCCCCCC)CC(=O)N1CCC(CN(CCCCCCCCC)CCCCCCCCC)C1 (centres unmarked) [Compound 70, 2-((2-(Dinonylamino)ethyl)(nonyl)amino)-1-(3-((dinonylamino)methyl)pyrrolidin-1-yl)ethan-1-one]
PDI ([1]; Table 1b): 0.24
Size (nm) ([1]; Table 1b): 79.8 nm
EE (%) ([2]; Table 1b): 99.14%
AUC (p/s*h) CD-1 mice 0.5 mpk (hEPO mRNA expression): 6.34E+7 p/s*h
